Values joined by “and” are separate entries in the source; they are usually repeats but may differ in a detail not shown here. Equal entries are not always repeated. Where two headings read alike, the source gives them in different places.
Tests used:
Assay type in all cases: biochemical
[1] = biological target: T1, recombinant 15-LOX enzyme (Homo sapiens, UniProt P16050); assay: 15-LOX fluorescent assay; settings: several values in one cell = repeat determinations
T1 sequence (P16050 1-662): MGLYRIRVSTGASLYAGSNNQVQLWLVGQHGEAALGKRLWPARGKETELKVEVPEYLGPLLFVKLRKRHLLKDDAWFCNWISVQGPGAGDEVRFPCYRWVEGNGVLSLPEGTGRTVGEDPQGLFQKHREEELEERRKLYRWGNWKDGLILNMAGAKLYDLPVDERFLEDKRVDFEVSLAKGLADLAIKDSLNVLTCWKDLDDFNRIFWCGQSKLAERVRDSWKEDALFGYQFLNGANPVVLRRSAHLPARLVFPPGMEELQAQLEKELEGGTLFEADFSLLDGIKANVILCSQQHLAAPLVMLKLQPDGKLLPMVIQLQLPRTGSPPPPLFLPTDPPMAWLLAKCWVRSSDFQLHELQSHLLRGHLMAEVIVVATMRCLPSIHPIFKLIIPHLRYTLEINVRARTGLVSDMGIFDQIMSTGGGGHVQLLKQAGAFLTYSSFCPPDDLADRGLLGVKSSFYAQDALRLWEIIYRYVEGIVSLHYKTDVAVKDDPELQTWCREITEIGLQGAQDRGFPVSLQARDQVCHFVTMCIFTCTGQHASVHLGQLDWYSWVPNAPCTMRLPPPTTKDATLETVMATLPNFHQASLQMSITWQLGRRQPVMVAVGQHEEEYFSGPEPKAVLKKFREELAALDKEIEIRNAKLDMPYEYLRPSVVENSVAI
In short: (§1)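 Compounds pre-incubated 15 min with 100 nM 12-LOX or 50 nM 15-LOX in 50 mM Tris pH 7.5, 0.05% Tween-20; reaction started with 20 μM AA/LA plus 1 μM DHR123.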

[2] = biological target: T2, recombinant 12-LOX enzyme (Homo sapiens, UniProt P18054); assay: 12-LOX fluorescent assay; settings: several values in one cell = repeat determinations
T2 sequence (P18054 1-663): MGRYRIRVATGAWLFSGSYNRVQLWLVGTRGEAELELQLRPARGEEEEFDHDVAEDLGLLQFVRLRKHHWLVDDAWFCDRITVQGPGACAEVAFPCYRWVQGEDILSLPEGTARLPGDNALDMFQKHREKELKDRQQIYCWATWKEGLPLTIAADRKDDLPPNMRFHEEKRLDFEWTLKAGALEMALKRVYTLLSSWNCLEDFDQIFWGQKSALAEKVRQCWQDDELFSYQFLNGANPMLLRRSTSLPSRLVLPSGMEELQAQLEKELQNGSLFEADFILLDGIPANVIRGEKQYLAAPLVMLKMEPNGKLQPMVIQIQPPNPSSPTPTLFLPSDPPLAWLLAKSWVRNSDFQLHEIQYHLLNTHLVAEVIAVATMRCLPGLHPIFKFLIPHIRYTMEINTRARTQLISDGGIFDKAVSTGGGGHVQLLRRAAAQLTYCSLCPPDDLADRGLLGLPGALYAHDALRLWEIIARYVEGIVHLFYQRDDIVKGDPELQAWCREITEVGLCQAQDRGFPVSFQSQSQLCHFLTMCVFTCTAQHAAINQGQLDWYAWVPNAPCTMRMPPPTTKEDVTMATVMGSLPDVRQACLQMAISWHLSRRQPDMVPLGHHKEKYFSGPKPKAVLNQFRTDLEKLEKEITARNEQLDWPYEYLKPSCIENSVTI
In short: as §1

[3] = biological target: T3, recombinant 5-LOX (Homo sapiens, UniProt P09917); assay: 5-LOX fluorescent assay; settings: several values in one cell = repeat determinations; read-out: IC50 (μM) values for in vitro lipoxygenase inhibition, 5-LOX
T3 sequence (P09917 1-674): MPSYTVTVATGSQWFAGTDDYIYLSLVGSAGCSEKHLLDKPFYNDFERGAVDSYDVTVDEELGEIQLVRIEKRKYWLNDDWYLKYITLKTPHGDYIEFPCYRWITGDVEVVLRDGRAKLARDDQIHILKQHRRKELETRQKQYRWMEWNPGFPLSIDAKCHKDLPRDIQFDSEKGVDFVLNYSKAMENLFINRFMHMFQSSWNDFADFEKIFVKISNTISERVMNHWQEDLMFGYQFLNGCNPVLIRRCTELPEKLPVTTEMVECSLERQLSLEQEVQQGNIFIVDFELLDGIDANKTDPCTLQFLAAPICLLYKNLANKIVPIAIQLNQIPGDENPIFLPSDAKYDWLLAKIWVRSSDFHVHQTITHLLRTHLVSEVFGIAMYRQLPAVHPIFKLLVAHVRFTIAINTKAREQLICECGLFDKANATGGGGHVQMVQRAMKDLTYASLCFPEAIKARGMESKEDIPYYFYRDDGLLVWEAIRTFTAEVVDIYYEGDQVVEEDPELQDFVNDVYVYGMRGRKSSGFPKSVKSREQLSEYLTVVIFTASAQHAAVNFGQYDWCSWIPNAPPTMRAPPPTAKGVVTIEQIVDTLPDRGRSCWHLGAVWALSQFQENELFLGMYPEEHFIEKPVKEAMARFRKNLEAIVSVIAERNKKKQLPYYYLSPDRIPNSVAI
In short: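 Lysate containing recombinant 5-LOX was pre-incubated 15 min with compounds in 50 mM Tris pH 7.5, 0.1 mM EDTA, 0.3 mM CaCl2. The reaction was started with 20 μM arachidonic acid, 100 μM ATP and 1 μM DHR123.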

[4] = read-out: IC50 (μM) values for in vitro lipoxygenase inhibition, 15-LOX
[5] = read-out: IC50 (μM) values for in vitro lipoxygenase inhibition, 12-LOX

Row | SMILES | IC50 [1, 4] | IC50 [2, 5] | IC50 [3] | IC50 ([1]; IC50 (μM) values for in vitro lipoxygenase inhibition, 15-LOX) | IC50 ([2]; IC50 (μM) values for in vitro lipoxygenase inhibition, 12-LOX)
1 | CN(C)CCc1cc(Nc2ccc(F)cc2Cl)cc2c1[nH]c1ccccc12 [SS20308-0277-01, N-(2-chloro-4-fluorophenyl)-1-(2-(dimethylamino)ethyl)-9H-carbazol-3-amine] | 0.57 µM | 0.04 µM | 0.32 µM | – | –
2 | Fc1cccc2c1[nH]c1cc3c(cc12)CCN3CCn1cncn1 [SS20308-0243-01, 1-(2-(1H-1,2,4-triazol-1-yl)ethyl)-8-fluoro-1,2,3,9-tetrahydropyrrolo[2,3-b]car bazole] | 1.13 µM | 0.03 µM | 0.2 µM | – | –
3 | CN(C)CCOc1cc2c(cc1-c1ccccc1[N+](=O)[O-])[nH]c1ccccc12 [SS20308-0076-01, N,N-dimethyl-2-(2-(2-nitrophenyl)-9H-carbazol-3-yloxy)ethanamine] | 5.7 µM | 3.59 µM | 4.54 µM | – | –
4 | Cc1cc2[nH]c3ccc(F)cc3c2cc1NCC1(Cn2cncn2)COC1 [SS20308-0233-01, N-((3-((1H-1,2,4-triazol-1-yl)methyl)oxetan-3-yl)methyl)-6-fluoro-2-methyl-9H-carbazol-3-amine] | 0.2 µM | 0.03 µM | 0.19 µM | – | –
5 | COc1cccc2c1[nH]c1ccc(F)cc12 [SS20308-0002-01, 6-fluoro-1-methoxy-9H-carbazole] | 4.33 µM | 8.04 µM | 20.8 µM | – | –
6 | CN(C)C/C=C\c1c2[nH]c3ccccc3c2cc2[nH]c3ccccc3c12 [SS20308-0126-01, (Z)-3-(5,11-dihydroindolo[3,2-b]carbazol-6-yl)-N,N-dimethylprop-2-en-1-amine] | – | – | 0.04 µM | 0.04 µM | 0.04 µM
7 | CN(C)C(=O)CC(c1ccccc1)c1ccc2[nH]c3ccccc3c2c1 (stereo not drawn) [SS20308-0222-01, 3-(9H-carbazol-3-yl)-N,N-dimethyl-3-phenylpropanamide] | 4.53 µM | 14 µM | 10.9 µM | – | –
8 | CN(C)CCOc1c2[nH]c3ccc(F)cc3c2c(F)c2[nH]c3ccc(F)cc3c12 [SS20308-0101-01, N,N-dimethyl-2-(2,8,12-trifluoro-5,11-dihydroindolo[3,2-b]carbazol-6-yloxy) ethanamine] | 40 nM (2×) and 70 nM | 0.08 µM and 0.1 µM and 0.12 µM | 0.07 µM and 0.05 µM and 0.04 µM | – | –
